# Measured values: patent US20250082584A1, “TRANSDERMAL THERAPEUTIC SYSTEM FOR THE TRANSDERMAL ADMINISTRATION OF SELEXIPAG” (LTS LOHMANN THERAPIE-SYSTEME AG, priority 2022, published 2025)
# Assay: Permeation of Selexipag and active metabolite MRE-269 through fresh human skin in modified Keshary-Chien diffusion cells
# Format: in vitro ADME
# Protocol: For determination of Selexipag and the Selexipag derived active metabolite MRE-269 permeated from fresh human skin tissue the following experiment was performed.
# Modified Keshary-Chien diffusion cells were used for this experiment, in which fresh human skin was used as barrier between the donor and the acceptor part. The acceptor compartment contained the acceptor medium (0.9% NaCl+3% Vanillin+0.5% Methyl-β-cyclodextrin+30% Acetonitrile in aqua purificata), the donor chamber contained a liquid solution of Selexipag in oleic acid, dipropylene glycol, ethanol and aqua purificata. The liquid solution Composition 1 was applied as suspension, with undissolved Selexipag, whereas Composition 2 was centrifuged prior to application and only the clear centrifugate was applied. The composition of the selexipag-containing coating Compositions 1 and 2 of are summarized below.
# Fresh human skin from plastic surgery was used (upper arm, person). […]
# The samples of acceptor solution were filtrated with syringe filters and analyzed with HPLC. Quantification of Selexipag was performed with an external standard. […]
# After 168 hrs of permeation the diffusion cells were dismantled, and the skin was rinsed with aqua purificata to remove residuals of the liquid solutions. […] The extracts were then diluted with acceptor medium, filtrated and analyzed with HPLC analogue to the permeation samples.
smiles,measurement,setting,value
CC(C)N(CCCCOCC(=O)O)c1cnc(-c2ccccc2)c(-c2ccccc2)n1 [MRE-269],Onset of release of MRE-269 compared to Selexipag in acceptor medium (FIG. 7 vs FIG. 8),"fresh human skin, acceptor medium, cumulative data",starts slower
same,Detection of active metabolite MRE-269 in permeation samples and skin extraction samples,"liquid Selexipag solutions (Compositions 1 and 2) on fresh human skin, 500 μm, 32° C., sampling 24-48-120-144-168 hrs, HPLC",detected at each sampling timepoint in all permeation samples as well as in the skin extraction samples
